From patent US20240358671A1, “COMPOSITIONS AND METHODS TO TREAT SKIN DISORDERS” (THE TRUSTEES OF INDIANA UNIVERSITY, priority 2021, published 2024)
Entries after “also recorded” stand apart in the source; their conditions may differ.

Tests used:
histone deacetylases = test: Histone deacetylase expression in S-1-P treated HK; assay type: cell-based, human
Description: (§1) FIGS. 11A-11O illustrate additional experimental results. FIG. 11A: Vector map of PPARδ promoter luciferase reporter. FIGS. 11B-11C: PPARδ drives CerS3 expression. CerS3 expression in human keratinocytes (HK) treated with PPARδ agonist (GW501516, 1 μmol/ml) or antagonist (GSK0660, 1 μmol/ml) as measured by qPCR. Data presented as mean±SEM (n=5). FIGS. 11D-11F: Upregulation of DNA methyl transferases in S-1-P treated HK. Data presented as mean±SEM (n=8). FIGS. 11G-11J: Induction of histone deacetylases in S-1P treated HK. Data presented as mean±SEM (n=8). FIGS. 11K-11N) Other histone deacetylases in S-1P treated HK. […] Data presented as mean±SEM, (n=8). FIG. 11O: miR-106b expression in HK treated with S-1-P (5 μmol/ml). Data presented as mean±SEM (n=8).

DNMT3B = DNMT3B activity assay; assay type: cell-based; conditions: human keratinocytes; 5 μmol S-1-P, 48 h
Method: Human keratinocytes cells were treated with 5 μmol of Sphingosine-1-phosphate (Avanti) for 48 h. Cells were collected and DNMT3B activity was measured using EpiQuik DNMT3B Activity/Inhibitor Screening Assay Core Kit (EPIGENTEK) according to manufacturer's instructions and using recombinant DNMT3B protein, (ACTIVE MOTIF) as a positive control for the assay.

PPARδ = PPARδ gene expression in S-1-P treated human keratinocytes; assay type: cell-based; conditions: human keratinocytes treated with S-1-P, standard culture conditions
Method: Spingosine-1-phosphate methylates PPARδ promoter. Cutaneous ceramide is degraded to sphingosine by bacterial ceramidase. Sphingosine is phosphorylated to sphingosine-1 phosphate (S-1-P) which is a bioactive lipid and can epigenetically downregulate gene regulation. Thus, a plausible role of S-1-P in regulating PPARδ in our experimental systems was tested. In the porcine pre-clinical model of wound biofilm infection elevated levels of S-1-P was detected following PAwt, but not PAΔCer, infection. […] Under standard culture conditions when human keratinocytes were treated with the bioactive sphingolipid S-1-P, gene expression of PPARδ was blunted. To determine whether such downregulation of PPARδ was epigenetically regulated, CpG methylation of the PPARδ promoter was studied.

DNA methyl transferases = test: DNA methyl transferase expression in S-1-P treated HK; assay type: cell-based, human
Description: as §1

miR-106b = miR-106b expression in HK treated with S-1-P; assay type: cell-based, human; conditions: HK treated with S-1-P 5 μmol/ml
Description: as §1

PPARδ promoter = test: Bisulfite sequencing of PPARδ promoter (CpG methylation); assay type: cell-based, human; conditions: HaCaT keratinocytes; S-1-P 5 μM, 48 hours
Method: The PCR products were gel extracted (GenElute Gel Extraction Kit, Sigma, cat #NA1111-1KT) and Sanger sequencing was done using ABI 3730 Genetic Analyzer. Analysis was done using Sequencher 5.4.5 (Gene Codes Corporation, MI). Results were confirmed by cloning the purified DNA into pGEM-T Easy Vector System II (Promega, cat #A1380), followed by sequencing.
Bisulfite conversion of DNA from HaCaT keratinocytes were transfected with Sphingosine-1-phosphate (5 μM, 48 hours) was performed using the Cells-to-CpG Bisulfite Conversion Kit (Thermo Fisher Scientific, part number: 4445555), as per manufacturer's protocol. The cells were lysed, and DNA was denatured using the denaturation reagent in a PCR tube at 50° C. for 10 min. Unmethylated cytosines were converted to uracil in the denatured DNA samples via treatment with conversion buffer containing bisulfite in a PCR reaction under following conditions: (1) 65° C. for 30 min, (2) 95° C. for 1.5 min, (3) 65° C. for 30 min, (4) 95° C. for 1.5 min, (5) 65° C. for 30 min, and (6) 4° C. up to 4 hr. This was followed by the removal of salts and desulfonation of the converted DNA in a binding column, a series of washing steps, and then elution of DNA. The converted DNA was stored at […] until further used.

SMILES: CCCCCCCCCCCCC/C=C/[C@@H](O)[C@@H](N)COP(=O)(O)O [S-1-P, sphingosine-1 phosphate]
- histone deacetylases expression (FIGS. 11G-11J) (histone deacetylases): Induction
- other histone deacetylases expression (FIGS. 11K-11N) (histone deacetylases): No significant changes
- catalytic activity of DNA methyl transferase 3B (DNMT3B) (DNMT3B): augmented catalytic activity
- gene expression of PPARδ (PPARδ): blunted; also recorded: epigenetically silenced
- DNA methyl transferases expression (FIGS. 11D-11F) (DNA methyl transferases): Upregulation
- miR-106b expression (miR-106b): Induction
- PPARδ promoter methylation (PPARδ promoter): caused promoter methylation
